Source: patent US11660319B2, “Compositions comprising bacterial strains” (priority 2017, dated 2023)

Test system: NFκB promoter
Experiment: NFκB promoter activation in Hek blue TLR4 cells (Quanti Blue)
Assay type: cell-based, human
Details: 10% bacteria supernatant, 22 h
Description: Once grown the Human Hek blue cells were plated in 96 well plates at 25,000 cells/well in 4 replicates. One set of cells were treated with α-synuclein A53T (1 ug/mL) alone or with 10% of bacteria supernatant from MRX0029 for 22 h. The second set of cells were treated with LPS (10 ng/mL, from Salmonella enterica serotype Typhimurium, Sigma Aldrich, cat n. L6143) alone or with 10% of bacteria supernatant from MR029 for 22 h. The cells were subsequently spun down and 20 ul of the supernatant was mixed with 200 ul of Quanti Blue reagent (InvivoGen, cat n. rep-qb2), incubated for 2 h and absorbance read at 655 nm.

Substance: Megasphaera massiliensis [MRx0029]
- activation of the NFκB promoter by LPS (LPS 10 ng/mL): inhibited
- activation of the NFκB promoter by α-synuclein (α-synuclein A53T 1 ug/mL): not inhibited
